The test system of this test is CD2F1 mice, P1798 lymphosarcoma sc, tumor weight T/C. Put plainly: NCI In Vivo Anticancer Drug Screen. Data for tumor model P1798 Lymphosarcoma (subcutaneous) in CD2F1 (CDF1) mice. The conditions noted are these: endpoint: mean tumor weight, higher = larger tumour. As for the experimental part:
The antitumor activity of compounds was measured in mice bearing transplantable tumors. Survival or tumor size were measured and the results are expressed as the measurement made in the treated group (T) divided by the measurement made in the vehicle treated control group (C). The tumor model used in this assay is P1798 Lymphosarcoma (subcutaneous) in CD2F1 (CDF1) mice

Where [1] appears, read: dose: 0.25 mg/kg/injection, schedule: Q01DX010 (ip), vehicle: saline.
Where [2] appears, read: dose: 3.13 mg/kg/injection, schedule: Q01DX010 (ip), vehicle: saline.
[3] abbreviates: dose: 6.25 mg/kg/injection, schedule: Q01DX010 (ip), vehicle: saline.
Where [4] appears, read: dose: 12.5 mg/kg/injection, schedule: Q01DX010 (ip), vehicle: saline.
Where [5] appears, read: dose: 125.0 mg/kg/injection, schedule: Q01DX010 (ip), vehicle: saline.
The mark [6] stands for this setting: dose: 12.5 mg/kg/injection, schedule: Q01DX005 (sc), vehicle: steriod suspending solution.
The mark [7] stands for this setting: dose: 25.0 mg/kg/injection, schedule: Q01DX005 (sc), vehicle: steriod suspending solution.
The mark [8] stands for this setting: dose: 25.0 mg/kg/injection, schedule: Q01DX010 (sc), vehicle: steriod suspending solution.
The mark [9] stands for this setting: dose: 50.0 mg/kg/injection, schedule: Q01DX005 (sc), vehicle: steriod suspending solution.
The mark [10] stands for this setting: dose: 50.0 mg/kg/injection, schedule: Q02DX010 (sc), vehicle: steriod suspending solution.
The mark [11] stands for this setting: dose: 50.0 mg/kg/injection, schedule: Q03DX004 (sc), vehicle: steriod suspending solution.
Where [12] appears, read: dose: 75.0 mg/kg/injection, schedule: Q01DX010 (sc), vehicle: steriod suspending solution.
[13] abbreviates: dose: 75.0 mg/kg/injection, schedule: Q02DX010 (sc), vehicle: steriod suspending solution.
[14] abbreviates: dose: 100.0 mg/kg/injection, schedule: Q01DX005 (sc), vehicle: steriod suspending solution.
Setting [15] is: dose: 100.0 mg/kg/injection, schedule: Q02DX010 (sc), vehicle: steriod suspending solution.
[16] abbreviates: dose: 100.0 mg/kg/injection, schedule: Q03DX004 (sc), vehicle: steriod suspending solution.
Where [17] appears, read: dose: 250.0 mg/kg/injection, schedule: Q01DX010 (sc), vehicle: steriod suspending solution.
The mark [18] stands for this setting: dose: 50.0 mg/kg/injection, schedule: Q01DX010 (ip), vehicle: saline.
Where [19] appears, read: dose: 100.0 mg/kg/injection, schedule: Q01DX010 (ip), vehicle: saline.
[20] abbreviates: dose: 200.0 mg/kg/injection, schedule: Q01DX010 (ip), vehicle: saline.
[21] abbreviates: dose: 400.0 mg/kg/injection, schedule: Q01DX010 (ip), vehicle: saline.
Setting [22] is: dose: 25.0 mg/kg/injection, schedule: Q01DX010 (ip), vehicle: saline.
The mark [23] stands for this setting: dose: 12.5 mg/kg/injection, schedule: Q01DX010 (sc), vehicle: steriod suspending solution.

Several values for one entry are separate records, joined by “and”; a condition that tells them apart may be missing. Equal entries are not always repeated.

By T/C is commonly meant the result in the treated group divided by that in the control group, in per cent.

Regarding `N#Cc1ccc(S(N)(=O)=O)cc1`, the T/C by setting is: (dose: 22.0 mg/kg/injection, schedule: Q01DX010 (ip), vehicle: saline) 70 % of control; (dose: 33.0 mg/kg/injection, schedule: Q01DX010 (ip), vehicle: saline) 54 % of control; (dose: 49.0 mg/kg/injection, schedule: Q01DX010 (ip), vehicle: saline) 67 % of control; (dose: 73.0 mg/kg/injection, schedule: Q01DX010 (ip), vehicle: saline) 35 % of control.

`CSCS(=O)C[C@H](CO)NC(=O)/C=C/c1c(C)[nH]c(=O)[nH]c1=O` (some centres undefined): the T/C was 94 % of control (dose: 0.13 mg/kg/injection, schedule: Q01DX010 (ip), vehicle: saline); 99 % of control under setting [1]; 15 % of control (dose: 0.5 mg/kg/injection, schedule: Q01DX010 (ip), vehicle: saline).

With `CCCNc1ncnc2c1cnn2C`, the T/C is, setting by setting: under setting [2], 90 % of control; under setting [3], 103 % of control; under setting [4], 86 % of control.

Turning to `CC(=O)Nc1ccc(/C=N/Nc2ccc([N+](=O)[O-])cn2)cc1`, the T/C runs as follows: (dose: 62.5 mg/kg/injection, schedule: Q01DX010 (ip), vehicle: saline) 66 % of control; under setting [5], 75 % of control; (dose: 250.0 mg/kg/injection, schedule: Q01DX010 (ip), vehicle: saline) 16 % of control.

Regarding `c1ccc(CNc2ncnc3[nH]ncc23)cc1`, the T/C is, setting by setting: (dose: 16.0 mg/kg/injection, schedule: Q01DX010 (ip), vehicle: saline) 98 % of control; (dose: 32.0 mg/kg/injection, schedule: Q01DX010 (ip), vehicle: saline) 83 % of control; (dose: 64.0 mg/kg/injection, schedule: Q01DX010 (ip), vehicle: saline) 70 % of control.

Take `C[C@]12C[C@H](O)[C@H]3[C@@H](CCC4=CC(=O)CC[C@@]43C)[C@@H]1CC[C@@H]2C(=O)CO`: the T/C reads like this: under setting [6], 88 % of control; under setting [7], 97 % of control; under setting [8], 91 % of control and 69 % of control; (dose: 25.0 mg/kg/injection, schedule: Q03DX004 (sc), vehicle: steriod suspending solution) 91 % of control; under setting [9], 63 % of control; under setting [10], 91 % of control. For the same compound, the T/C by setting is: under setting [11], 56 % of control; under setting [12], 105 % of control; under setting [13], 101 % of control; under setting [14], 32 % of control; under setting [15], 101 % of control; under setting [16], 33 % of control.

Regarding `COc1cc(-c2ccc(Nc3ccccc3C(=O)O)c(OC)c2)ccc1N`, the T/C reads like this: (dose: 20.0 mg/kg/injection, schedule: Q01DX010 (ip), vehicle: saline) 82 % of control; (dose: 40.0 mg/kg/injection, schedule: Q01DX010 (ip), vehicle: saline) 52 % of control.

Regarding `COc1ccc2c(c1)CC[C@@H]1[C@@H]2CC[C@@]2(C)[C@H]1CC[C@@]2(O)C(F)=C(F)F`, the T/C (dose: 111.0 mg/kg/injection, schedule: Q01DX010 (sc), vehicle: steriod suspending solution) is 12 % of control; the T/C (dose: 167.0 mg/kg/injection, schedule: Q01DX010 (sc), vehicle: steriod suspending solution) is 9 % of control; the T/C under setting [17] is 10 % of control; the T/C (dose: 375.0 mg/kg/injection, schedule: Q01DX010 (sc), vehicle: steriod suspending solution) was 8 % of control.

With `NCC(=O)NCCCCCCNCCCCCCNC(=O)CN`, the T/C reads like this: under setting [18], 82 % of control; under setting [19], 113 % of control; under setting [20], 89 % of control; under setting [21], 73 % of control.

On to `CC(=O)NCCSC(=O)C(=O)SCCNC(C)=O`, for which the T/C is 111 % of control under setting [22], 104 % of control under setting [18] and 110 % of control under setting [19].

On to `CS(=O)(=O)OCCN(CCOS(C)(=O)=O)c1ccc(N=O)cc1`, for which the T/C is, setting by setting: under setting [1], 92 % of control; (dose: 1.0 mg/kg/injection, schedule: Q01DX010 (ip), vehicle: saline) 69 % of control.

On to `CCCSc1ncnc2nc[nH]c12`, for which the T/C under setting [5] is 21 % of control.

For the compound `CN(C)CC(=O)c1ccc(O)c(O)c1`, the T/C under setting [20] is 122 % of control; the T/C (dose: 300.0 mg/kg/injection, schedule: Q01DX010 (ip), vehicle: saline) is 105 % of control; the T/C (dose: 450.0 mg/kg/injection, schedule: Q01DX010 (ip), vehicle: saline) is 72 % of control; the T/C (dose: 675.0 mg/kg/injection, schedule: Q01DX010 (ip), vehicle: saline) is 80 % of control.

As to `N#CCCCCCNC(=O)CCCCC(=O)NCCCCCC#N`, the T/C under setting [19] was 85 % of control, the T/C under setting [20] was 111 % of control and the T/C under setting [21] is 87 % of control.

As for `CC(=O)Nc1c(Cl)cc2c(c1Cl)Cc1cc([N+](=O)[O-])ccc1-2`, the T/C is, setting by setting: (dose: 15.0 mg/kg/injection, schedule: Q01DX011 (ip), vehicle: carboxymethylcellulose (CMC)) 85 % of control; (dose: 65.0 mg/kg/injection, schedule: Q01DX011 (ip), vehicle: carboxymethylcellulose (CMC)) 108 % of control.

For the compound `CC1(O)CCC2C3CCC4=CC(=O)CCC4C3CCC21C` (centres undefined), the T/C was 83 % of control (dose: 125.0 mg/kg/injection, schedule: Q01DX010 (sc), vehicle: steriod suspending solution); 81 % of control under setting [17]; 80 % of control (dose: 500.0 mg/kg/injection, schedule: Q01DX010 (sc), vehicle: steriod suspending solution); 67 % of control (dose: 1000.0 mg/kg/injection, schedule: Q01DX010 (sc), vehicle: steriod suspending solution).

With `COC1=C(N)C(=O)c2nc(-c3nc(C(=O)O)c(C)c(-c4ccc(OC)c(OC)c4O)c3N)ccc2C1=O`, the T/C is 45 % of control (dose: 0.06 mg/kg/injection, schedule: Q01DX010 (ip), vehicle: other); 48 % of control (dose: 0.09 mg/kg/injection, schedule: Q01DX010 (ip), vehicle: other); 43 % of control (dose: 0.13 mg/kg/injection, schedule: Q01DX010 (ip), vehicle: other); 28 % of control (dose: 0.2 mg/kg/injection, schedule: Q01DX010 (ip), vehicle: saline).

As to `CC(=O)[C@H]1CC[C@H]2[C@@H]3C[C@H](C)C4=CC(=O)CC[C@]4(C)[C@H]3C(=O)C[C@]12C`, the T/C is, setting by setting: under setting [6], 89 % of control; under setting [23], 93 % of control and 95 % of control; under setting [7], 62 % of control; under setting [8], 92 % of control and 96 % of control; under setting [9], 41 % of control; under setting [10], 96 % of control. Also, the T/C is 43 % of control under setting [11]; 103 % of control under setting [12]; 89 % of control under setting [13]; 32 % of control under setting [14]; 93 % of control under setting [15]; 46 % of control under setting [16]. Moreover, the T/C (dose: 200.0 mg/kg/injection, schedule: Q01DX010 (sc), vehicle: steriod suspending solution) is 22 % of control.

Turning to `O=C(C(=O)N1CC1)c1c[nH]c2ccccc12`, the T/C is 90 % of control under setting [2]; 105 % of control under setting [3]; 92 % of control and 99 % of control under setting [4]; 108 % of control under setting [22].

For `C=CCOc1ccc2c(c1)CC[C@@H]1[C@@H]2CC[C@]2(C)[C@@H](O)[C@@H](O)C[C@@H]12`, the T/C (dose: 6.25 mg/kg/injection, schedule: Q01DX010 (sc), vehicle: steriod suspending solution) is 98 % of control and 82 % of control; the T/C under setting [23] was 77 % of control and 88 % of control.

In the case of `N#CCSc1ncnc2nc[nH]c12`, the T/C is, setting by setting: (dose: 7.5 mg/kg/injection, schedule: Q01DX010 (ip), vehicle: saline) 87 % of control; (dose: 15.0 mg/kg/injection, schedule: Q01DX010 (ip), vehicle: saline) 56 % of control; (dose: 30.0 mg/kg/injection, schedule: Q01DX010 (ip), vehicle: saline) 97 % of control and 109 % of control; (dose: 60.0 mg/kg/injection, schedule: Q01DX010 (ip), vehicle: saline) 97 % of control and 108 % of control.

The record behind these values is PubChem BioAssay AID268 (DTP/NCI, 2004).
